The record followed here is patent US20130059850A1, “AZA-INDOLE DERIVATIVES USEFUL AS MODULATORS OF FAAH” (MERCK SHARP & DOHME CORP., priority 2010, published 2013).

The target in test [1] is T1, human FAAH (Fatty Acid Amide Hydrolase) (Homo sapiens, UniProt O00519).
T1 construct: The full length FAAH was subcloned into the mammalian expression vector, pcDEF.neo, using XbaI and EcoRI restriction sites; expressed in transfected cells
T1 sequence (O00519 1-579): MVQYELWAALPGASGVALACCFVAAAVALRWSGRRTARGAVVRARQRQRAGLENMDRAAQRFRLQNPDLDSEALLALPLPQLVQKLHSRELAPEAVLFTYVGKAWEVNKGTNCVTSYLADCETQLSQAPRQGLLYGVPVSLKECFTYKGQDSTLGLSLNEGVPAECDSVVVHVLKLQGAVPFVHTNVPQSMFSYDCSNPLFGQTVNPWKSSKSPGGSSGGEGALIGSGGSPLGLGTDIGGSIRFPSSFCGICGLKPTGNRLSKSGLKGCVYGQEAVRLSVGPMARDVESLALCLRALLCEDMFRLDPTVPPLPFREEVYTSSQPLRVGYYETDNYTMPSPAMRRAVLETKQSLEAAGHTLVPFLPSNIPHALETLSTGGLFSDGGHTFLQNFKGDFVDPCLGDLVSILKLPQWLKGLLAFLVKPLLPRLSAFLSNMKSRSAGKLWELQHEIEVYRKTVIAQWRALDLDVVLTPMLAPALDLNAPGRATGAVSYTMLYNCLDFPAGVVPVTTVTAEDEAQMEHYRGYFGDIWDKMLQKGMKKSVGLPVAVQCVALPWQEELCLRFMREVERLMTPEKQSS
The test is described as follows: FAAH enzyme assay on CHO cell lysate expressing human FAAH (human LY), AAMCA fluorescent substrate. The test is classed as biochemical. As to conditions: human FAAH_CHO cell lysate. The method, boiled down:
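CHO cell lysate expressing full-length human FAAH, preincubated with compound 15 min at 22-25° C. in pH 8.0 phosphate buffer with 200 mM KCl and 0.1% fatty-acid-free BSA. 1 μM AAMCA final, 1-3 h at room temperature; 7-amino-4-methylcoumarin release read by fluorescence (Ex 360, Em 460 nm).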

Test [2] deals with T1, human FAAH (Fatty Acid Amide Hydrolase). Kind of test: FAAH whole cell assay on CHO cells expressing human FAAH (human WC), AAMCA fluorescent substrate. Format: cell-based. Particulars: human FAAH_CHO whole cell. In a few lines: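 CHO cells stably expressing full-length human FAAH, harvested with enzyme-free dissociation and resuspended at 4×10^4 cells/assay (96-well) or 1×10^4 (384-well) in 50 mM phosphate pH 8.0, 1 mM EDTA, 200 mM KCl, 0.2% glycerol, 0.1% BSA.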

`O=C(Nc1ccc2c(c1)OCCO2)c1[nH]c2ncccc2c1Sc1ccc(Cl)cc1` [Example C14]: the IC50 in test [1] is 7.43 nM; in test [2] it was 28.5 nM.
On the same counts, the results for `O=C(Nc1ccc2c(c1)OCO2)c1[nH]c2ncccc2c1Sc1ccc(Cl)cc1` [Example C15] are 5.9 nM and 9.92 nM.
In the case of `O=C(Nc1ccc2[nH]ncc2c1)c1[nH]c2ncccc2c1Sc1ccc(Cl)cc1` [Example C16], the 50% inhibitory concentration (IC50) in test [1] came to 9.79 nM; in test [2], 18.1 nM.
On the same counts, the results for `O=C(NC1CCCCC1)c1[nH]c2ncccc2c1Sc1ccc(Cl)cc1` [Example C17] are 30.4 nM and 101 nM.
For `O[C@H]1CC[C@H](c2[nH]c3ncccc3c2Sc2ccc(Cl)cc2)CC1` [Example D5, trans-4-{3-[(4-chlorophenyl)sulfanyl]-1H-pyrrolo[2,3-b]pyridin-2-yl}cyclohexanol], in that order: 3.83 nM and 9.16 nM.
As for `O[C@H]1CC[C@H](c2[nH]c3ncccc3c2Sc2ccc(Cl)cn2)CC1` [Example D6, trans-4-{3-[(5-chloropyridin-2-yl)sulfanyl]-1H-pyrrolo[2,3-b]pyridin-2-yl}cyclohexanol], the IC50 in test [1] was 13.4 nM; in test [2], 32.7 nM.
For `O=C1CCC(c2[nH]c3ncccc3c2Sc2ccc(Cl)cc2)CC1` [Example D7, 4-{3-[(4-chlorophenyl)sulfanyl]-1H-pyrrolo[2,3-b]pyridin-2-yl}cyclohexanone], in that order: 14.2 nM and 22.8 nM.
On the same counts, the results for `Cn1cccc2c(Sc3ccc(Cl)cc3)c(-c3ccc4c(c3)OCCO4)nc1-2` [Example E2, 3-[(4-chlorophenyl)sulfanyl]-2-(2,3-dihydro-1,4-benzodioxin-6-yl)-7-methyl-7H-pyrrolo[2,3-b]pyridine] are 9.7 nM and 23.4 nM.
For `Cn1c(-c2ccc3c(c2)OCCO3)c(Sc2ccc(Cl)cc2)c2cccnc21` [Example E3, 3-[(4-chlorophenyl)sulfanyl]-2-(2,3-dihydro-1,4-benzodioxin-6-yl)-1-methyl-1H-pyrrolo[2,3-b]pyridine], in that order: 6.51 nM and 16.6 nM.
Regarding `Cn1cccc2c(Sc3ccc(Cl)cc3)c(-c3ccc4[nH]ncc4c3)nc1-2` [Example E4], the 50% inhibitory concentration (IC50) in test [1] is 4.22 nM; in test [2], 12.4 nM.
For `Cn1cccc2c(Sc3ccc(Cl)cc3)c(C3=CCC(O)CC3)nc1-2` (stereo not drawn) [Example E5], in that order: 8.07 nM and 53.9 nM.
On the same counts, the results for `Cn1cccc2c(Sc3ccc(Cl)cc3)c([C@H]3CC[C@H](O)CC3)nc1-2` [Example E7] are 9.92 nM and 18.8 nM.
Take `COc1cc(-c2nc3n(C)cccc-3c2Sc2ccc(Cl)cc2)cnc1OC` [Example E8]: the half-maximal inhibitory concentration (IC50) in test [1] was found to be 12.4 nM; in test [2], 72.7 nM.
On the same counts, the results for `Cn1cccc2c(Sc3ccc(Cl)cn3)c(-c3ccc4[nH]ncc4c3)nc1-2` [Example E9] are 15.4 nM and 82.5 nM.
For `Cn1cccc2c(Sc3ccc(Cl)cc3)c(-c3ccc(C(O)C(F)(F)F)cc3)nc1-2` (stereo not drawn) [Example E10], in that order: 18.5 nM and 70.6 nM.
For `Cn1cccc2c(Sc3ccc(Cl)cn3)c(-c3ccc4c(c3)OCO4)nc1-2` [Example E11], in that order: 26.6 nM and 71.6 nM.
In the case of `OCCn1cccc2c(Sc3ccc(Cl)cc3)c(-c3ccc4c(c3)OCO4)nc1-2` [Example E12], the values for the concentration for half-maximal inhibition (IC50) in test [1] and in test [2] were 28.8 nM and 76.7 nM, respectively.
Regarding `CCn1cccc2c(Sc3ccc(Cl)cc3)c(-c3ccc4c(c3)OCO4)nc1-2` [Example E13], the IC50 in test [1] turned out to be 48.9 nM; in test [2], 160 nM.
On the same counts, the results for `Cn1cccc2c(Sc3ccc(Cl)cn3)c(-c3ccc(C(O)C(F)(F)F)cc3)nc1-2` (stereo not drawn) [Example E14] are 116 nM and 925 nM.
Take `Cn1cccc2c(Sc3ccc(Cl)cn3)c([C@H]3CC[C@H](O)CC3)nc1-2` [Example E16]: the values for the IC50 in test [1] and in test [2] were 2030 nM and 8490 nM, respectively.
On the same counts, the results for `OCCn1cccc2c(Sc3ccc(Cl)cn3)c(-c3ccc4c(c3)OCCO4)nc1-2` [Example E17] are 168 nM and 1300 nM.
On the same counts, the results for `Cn1cccc2c(Sc3ccc(Cl)cc3)c(C(=O)Nc3ccc4c(c3)OCCO4)nc1-2` [Example E18] are 171 nM and 1340 nM.
For `Cn1cccc2c(Sc3ccc(Cl)cn3)c(C3=CCC(O)CC3)nc1-2` (stereo not drawn) [Example E19], in that order: 181 nM and 1210 nM.
In the case of `OCCn1cccc2c(Sc3ccc(Cl)cn3)c(-c3ccc4c(c3)OCO4)nc1-2` [Example E20], the IC50 was found to be 289 nM in test [1] and 1040 nM in test [2].
On the same counts, the results for `NC(=O)CCn1cccc2c(Sc3ccc(Cl)cc3)c(-c3ccc4c(c3)OCO4)nc1-2` [Example E21] are 317 nM and 1390 nM.
Turning to `Clc1ccc(Sc2c3cccn(CCn4cccc4)c-3nc2-c2ccc3c(c2)OCO3)cc1` [Example E22], the IC50 in test [1] is 497 nM; in test [2], 3220 nM.
On the same counts, the results for `Cn1cccc2c(Sc3ccc(Cl)cn3)c([C@H]3CC[C@@H](O)CC3)nc1-2` [Example E23] are 148 nM and 252 nM.
For `Cn1c(-c2ccc(C(O)C(F)(F)F)cc2)c(Sc2ccc(Cl)cc2)c2cccnc21` (stereo not drawn) [Example E33], in that order: 106 nM and 186 nM.
As to `Cn1c2ncccc2c(Sc2ccc(Cl)cc2)c1[C@H]1CC[C@H](O)CC1` [Example E34], the half-inhibitory concentration (IC50) in test [1] is 7.08 nM; in test [2], 9.93 nM.
As to `OCCn1c(-c2ccc3c(c2)OCO3)c(Sc2ccc(Cl)cc2)c2cccnc21` [Example E35], the values for the IC50 in test [1] and in test [2] were 31.7 nM and 115 nM, respectively.
For `COc1ccc(Cc2[nH]c3ncccc3c2Sc2ccc(Cl)cc2)cc1` [Example F2, 3-[(4-chlorophenyl)sulfanyl]-2-(4-methoxybenzyl)-1H-pyrrolo[2,3-b]pyridine], in that order: 52.9 nM and 151 nM.
Consider `N#Cc1ccccc1-c1[nH]c2ncccc2c1Sc1ccc(Cl)cc1` [Example F8], for which the IC50 in test [1] came out at 12.2 nM; in test [2] it was 69.4 nM.
On the same counts, the results for `Clc1ccc(Sc2c(-c3ccccn3)[nH]c3ncccc23)cc1` [Example F9] are 339 nM and 1110 nM.
With `Clc1ccc(Sc2c(-c3ccc4[nH]ncc4c3)[nH]c3ncccc23)cc1` [Example I3, 5-{3-[(4-chlorophenyl)sulfanyl]-1H-pyrrolo[2,3-b]pyridin-2-yl}-1H-indazole], the IC50 in test [1] was determined as 2.15 nM; in test [2], 10.7 nM.
On the same counts, the results for `OC(c1ccccc1)c1[nH]c2ncccc2c1Sc1ccc(Cl)cc1` (stereo not drawn) [Example J4, {3-[(4-chlorophenyl)sulfanyl]-1H-pyrrolo[2,3-b]pyridin-2-yl}(phenyl)methanol] are 5870 nM and 10000 nM.
For `Clc1ccc(Sc2c(CNCc3ccccc3)[nH]c3ncccc23)cc1` [Example J6, N-benzyl-1-{3-[(4-chlorophenyl)sulfanyl]-1H-pyrrolo[2,3-b]pyridin-2-yl}methanamine], in that order: 132 nM and 400 nM.
Consider `Clc1ccc(Sc2c(CNC3CCOCC3)[nH]c3ncccc23)cc1` [Example J7], for which the IC50 in test [1] was 260 nM; in test [2], 1140 nM.
As for `OC1CCN(Cc2[nH]c3ncccc3c2Sc2ccc(Cl)cc2)CC1` [Example J8], the IC50 in test [1] amounted to 80.4 nM; in test [2], 433 nM.
For `OC(c1ccc2c(c1)OCO2)c1[nH]c2ncccc2c1Sc1ccc(Cl)cc1` (stereo not drawn) [Example J9], in that order: 2600 nM and 3330 nM.
On the same counts, the results for `COc1ccc(C(O)c2[nH]c3ncccc3c2Sc2ccc(Cl)cc2)cc1` (stereo not drawn) [Example J10] are 818 nM and 8410 nM.
On the same counts, the results for `CC(C)C(O)c1[nH]c2ncccc2c1Sc1ccc(Cl)cc1` (stereo not drawn) [Example J11] are 695 nM and 5890 nM.
Consider `CC1(C)CC(NCc2[nH]c3ncccc3c2Sc2ccc(Cl)cc2)CC(C)(C)O1` [Example J12], for which the concentration for half-maximal inhibition (IC50) in test [1] amounted to 59 nM; in test [2], 202 nM.
